Legend:
[1] = ATTM solubility in sample solution (HPLC), methanol, ethanol and purified water; format: physicochemical; details: ethanol, purified water
Protocol: The ATTM solubility was measured in sample solution (HPLC), methanol, ethanol and purified water.

[2] = Long-term stability study of ATTM samples, determined by HPLC; format: physicochemical; details: after 6 months, by HPLC
Protocol: ATTM Samples 1 and 2 were prepared essentially according to procedure in Example 1 starting with 12 kg of ammonium heptamolybdate. The isolated product was packed and stored immediately. Specifically, the samples were packaged corresponding to the packaging of the bulk material under argon in transparent anti-static polyethylene plastic bags, 90 10 10, 110 mm×170 mm, and the bags containing the samples were sealed with a plastic tie, and then subsequently packed in welded aluminium bags along with a drying agent in-between the two bags. Additional samples were packaged with ambient atmosphere in transparent anti-static polyethylene plastic bags, 90 10 10, 110 mm×170 mm. The bags containing the samples were sealed with a plastic tie, and then subsequently packed in welded aluminium bags along with a drying agent in-between the two bags.

[NH4+].[NH4+].[SH-].[SH-].[S]=[Mo]=[S] [ATTM, Ammonium tetrathiomolybdate]
ATTM solubility [1]: lowest in alcohols, particularly in ethanol, and higher in water | degradation of ATTM on storage [2]: no significant degradation

— patent US20220081387A1, “METHODS FOR PREPARING AMMONIUM TETRATHIOMOLYBDATE” (Alexion Pharmaceuticals, Inc., priority 2019, published 2022)
